Laboratory results taken from patent publication US20260207565A1, “COMPOUNDS THAT INHIBIT PKMYT1” (Exelixis, Inc., priority 2022, published 2026).
pIC50: −log10 of the molar value. Where two headings read alike, the source gives them in different places.

Columns and labels:
[1] = test system: phosphorylation of CDK1 at Thr14 in HCC1806 cells; experiment: Cell lysate AlphaLISA assay measuring inhibition of phosphorylation of CDK1 Thr14; assay type: cell-based; conditions: compounds incubated 4 hours, AlphaLISA SureFire Ultra CDK1 Thr14, read-out: Cellular IC50
Description: (§1) Biochemical IC50 values were determined via ADP-Glo™ assay. Cellular IC50 values were determined via AlphaLISA assay.
Cell lysate AlphaLISA® assay measuring inhibition of phosphorvlation of CDK1 Thr14. Inhibition of phosphorylation of CDK1 at Thr14 was determined using AlphaLISAn SureFire® Ultra™ Kit from Perkin Elmer (ALSU-PCDK1-A10K). HCC1806 cells were seeded at 2K cells per well (50 μl/well) in 384-well plates (Corning 3570) and stored overnight at 37° C. and 5% CO2. The following day, the compounds dissolved in DMSO were introduced to the cells and incubated for 4 hours at 37° C. and 5% CO2. The cells were then washed with PBS using Blue® Washer and 10 μl of lysis buffer containing protease inhibitor was added. The plate was placed on an orbital shaker (at 4° C.) for 30 minutes and stored overnight at −80° C. for complete lysing. The next day, the plates were thawed at room temperature for at least 30 min. Reagents were prepared in a dimmed light setting (<100 lumens). The assay was run by first adding 5 μl of the acceptor mix (reaction buffer 1: reaction buffer 2:activation buffer:acceptor beads 47:47:4:2), covering the plate with foil, shaking for 2 minutes, and incubating at RT for 60 minutes. The donor mix (dilution buffer:donor beads 47:3) was then added at 5 μl per well, placed on the shaker for 2 minutes and incubated at RT for 60 minutes before reading the plates on a PHERAstar® plate reader. The results were normalized to DMSO (0% Inhibition) and 3 μM of reference compound.

PKMYT1 = molecular target: T1, PKMYT1 (Homo sapiens, UniProt Q99640); experiment: ADP-Glo PKMYT1 ATP-depletion assay; conditions: 50 nM PKMYT1, 13.3 nM CDK1, 88 μM ATP, 120 minutes at RT, read-out: Biochemical IC50
T1 construct: PKMYT1 (93 kD, full length, N-terminal GST tag from Signal Chem); GST (N); purchased Signal Chem
T1 sequence (Q99640 1-499): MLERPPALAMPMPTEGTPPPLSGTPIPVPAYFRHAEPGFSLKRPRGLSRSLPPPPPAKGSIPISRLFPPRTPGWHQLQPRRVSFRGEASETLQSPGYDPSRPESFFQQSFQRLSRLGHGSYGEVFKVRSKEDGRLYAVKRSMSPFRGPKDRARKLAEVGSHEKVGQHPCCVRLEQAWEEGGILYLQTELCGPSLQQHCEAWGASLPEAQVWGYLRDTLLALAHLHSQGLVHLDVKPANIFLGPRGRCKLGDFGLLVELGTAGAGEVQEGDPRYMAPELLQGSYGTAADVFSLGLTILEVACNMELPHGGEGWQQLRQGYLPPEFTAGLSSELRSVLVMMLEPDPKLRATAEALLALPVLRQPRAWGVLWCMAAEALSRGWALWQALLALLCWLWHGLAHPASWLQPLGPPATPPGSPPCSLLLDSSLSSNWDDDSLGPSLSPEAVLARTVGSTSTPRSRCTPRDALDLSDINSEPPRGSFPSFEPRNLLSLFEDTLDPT
Description: as §1
ADP-Glo™ PKMYT1 ATP-depletion assay. The activity of PKMYT1 is measured using a luciferase-luciferin based ATP detection reaction to quantify ATP depletion resulting from kinase-catalyzed phosphoryl transfer to CDK1 or autophosphorylation of PKMYT1. The ADP generated as a byproduct of the reaction is converted to ATP and used to drive a luciferase reaction. Test compounds were dissolved in DMSO and dispensed into Corning 3824 384-well plates prior to the experiment such that the final DMSO concentration was <10%. To the compounds was added 3 μL of PKMYT1 (93 kD, full length, N-terminal GST tag from Signal Chem). The reaction was started by the addition of 2 μL of CDK1 (58 kDa, full length, N-terminal GST tag from Signal Chem) and ATP in assay buffer (50 mM Hepes, 40 mM NaCl, 10 mM MgCl2, 1 mM DTT, 0.1 mg/mL BSA, 2.5 mM MnCl2). Final assay concentrations were 50 nM PKMYT1, 13.3 nM CDK1, and 88 μM ATP. Plates were centrifuged for 1 minute at 1000 RPM and incubated at RT for 120 minutes. After the incubation period, ADP-Glo™ reagent was added and the plates were incubated for another 40 minutes before finally adding the kinase detection reagent, 30 minutes after the addition, plates were placed on a PHERAstar® plate reader and read using the Luminescence Protocol, integration time at 0.5 seconds.

| Compound | pIC50 ([1]; Homo sapiens, HCC1806, 4 h) | pIC50 (PKMYT1) | pIC50 [1] |
| --- | --- | --- | --- |
| Cc1ccc(O)c(C)c1-c1c(N)c(C(N)=O)cc2c1nc(C(F)F)n2C(F)F (atropisomer, axis not shown; (P)) [Compound 94, (P)-6-amino-2,3-bis(difluoromethyl)-7-(3-hydroxy-2,6-dimethyl-phenyl)benzimidazole-5-carboxamide] | > 7.30 | > 7.30 | – |
| Cc1ccc(O)c(C)c1-c1c(N)c(C(N)=O)cc2c1nc(C(F)F)n2-c1ncccc1F (atropisomer, axis not shown; (P)) [Compound 95, (P)-6-amino-2-(difluoromethyl)-3-(3-fluoro-2-pyridyl)-7-(3-hydroxy-2,6-dimethyl-phenyl)benzimidazole-5-carboxamide] | > 7.30 | > 7.30 | – |
| CCn1cc(-n2ccnc2)c2c(-c3c(C)ccc(O)c3C)cc(C(N)=O)nc21 (atropisomer, axis not shown; (P)) [Compound 97, (P)-1-ethyl-4-(3-hydroxy-2,6-dimethylphenyl)-3-(1H-imidazol-1-yl)-1H-pyrrolo[2,3-b]pyridine-6-carboxamide] | 5.30 to 6.00 | 6.30 to 7.30 | – |
| Cc1ccc(O)c(C)c1-c1cc(C(N)=O)nc2c1c(C#N)cn2CC(F)(F)F (racemic) [Compound 23, 3-cyano-4-(3-hydroxy-2,6-dimethylphenyl)-1-(2,2,2-trifluoroethyl)pyrrolo[2,3-b]pyridine-6-carboxamide] | > 7.30 | > 7.30 | – |
| Cc1ccc(O)c(C)c1-c1cc(C(N)=O)nc2c1c(C#N)c(C)n2C (racemic) [Compound 26, 3-cyano-4-(3-hydroxy-2,6-dimethylphenyl)-1,2-dimethyl-pyrrolo[2,3-b]pyridine-6-carboxamide] | 6.30 to 7.30 | > 7.30 | – |
| Cc1ccc(O)c(C)c1-c1cc(C(N)=O)nc2c1c(Cl)cn2C (racemic) [Compound 30, 3-chloro-4-(3-hydroxy-2,6-dimethylphenyl)-1-methyl-1H-pyrrolo[2,3-b]pyridine-6-carboxamide] | 5.30 to 6.00 | 6.30 to 7.30 | – |
| Cc1c(O)cccc1-c1c(N)c(C(N)=O)cn2c(C)nnc12 (racemic) [Compound 51, 7-Amino-8-(3-hydroxy-2-methylphenyl)-3-methyl-[1,2,4]triazolo[4,3-a]pyridine-6-carboxamide] | ≤ 5.30 | 6.00 to 6.30 | – |
| Cc1c(O)cccc1-c1c(N)c(C(N)=O)nc2c1c(C#N)nn2C (racemic) [Compound 54, 5-Amino-3-cyano-4-(3-hydroxy-2-methylphenyl)-1-methyl-1H-pyrazolo[3,4-b]pyridine-6-carboxamide] | 6.30 to 7.30 | > 7.30 | – |
| Cc1c(O)cccc1-c1c(N)c(C(N)=O)cn2c(C)nnc12 (single isomer, unassigned) [Compound 52, (P)-7-Amino-8-(3-hydroxy-2-methylphenyl)-3-methyl-[1,2,4]triazolo[4,3-a]pyridine-6-carboxamide] | ≤ 5.30 | 6.30 to 7.30 | – |
| Cc1c(O)cccc1-c1c(N)c(C(N)=O)cn2c(C)nnc12 (single isomer, unassigned) [Compound 53, (M)-7-amino-8-(3-hydroxy-2-methylphenyl)-3-methyl-[1,2,4]triazolo[4,3-a]pyridine-6-carboxamide] | – | ≤ 5.30 | ≤ 5.30 |
| Cc1c(O)cccc1-c1c(N)c(C(N)=O)nc2c1c(C#N)nn2C (single isomer, unassigned) [Compound 58, (M)-5-Amino-3-cyano-4-(3-hydroxy-2-methylphenyl)-1-methyl-1H-pyrazolo[3,4-b]pyridine-6-carboxamide] | – | > 7.30 | 6.30 to 7.30 |

More lines, now with the values ahead:

| pIC50 ([1]; Homo sapiens, HCC1806, 4 h) | pIC50 (PKMYT1) | pIC50 [1] | Compound |
| --- | --- | --- | --- |
| > 7.30 | > 7.30 | – | [2H]c1cc(C)c(-c2cc(C(N)=O)nc3c2c(C#N)cn3CC)c(C)c1O (atropisomer, axis not shown; (P)) [Compound 89, (P)-3-cyano-1-ethyl-4-(3-hydroxy-2,6-dimethylphenyl-4-d)-1H-pyrrolo[2,3-b]pyridine-6-carboxamide] |
| > 7.30 | > 7.30 | – | Cc1ccc(O)c(C)c1-c1cc(C(N)=O)nc2c1c(C#N)cn2CC(F)F (atropisomer, axis not shown; (P)) [Compound 93, (P)-3-cyano-1-(2,2-difluoroethyl)-4-(3-hydroxy-2,6-dimethylphenyl)-1H-pyrrolo[2,3-b]pyridine-6-carboxamide] |
| > 7.30 | > 7.30 | – | Cc1ccc(O)c(C)c1-c1c(N)c(C(N)=O)cc2c1nnn2C(F)F (atropisomer, axis not shown; (P)) [Compound 98, (P)-5-amino-1-(difluoromethyl)-4-(3-hydroxy-2,6-dimethylphenyl)-1H-benzo[d][1,2,3]triazole-6-carboxamide] |
| > 7.30 | > 7.30 | – | Cc1c(O)cccc1-c1c(N)c(C(N)=O)nc2c1c(C#N)cn2C (racemic) [Compound 4, 5-Amino-3-cyano-4-(3-hydroxy-2-methylphenyl)-1-methyl-1H-pyrrolo[2,3-b]pyridine-6-carboxamide] |
| – | > 7.30 | > 7.30 | Cc1ccc(O)c(C)c1-c1c(N)c(C(N)=O)nc2c1ncn2C (single isomer, unassigned) [Compound 2, (P)-6-Amino-7-(3-hydroxy-2,6-dimethylphenyl)-3-methyl-3H-imidazo[4,5-b]pyridine-5-carboxamide] |
| – | 5.30 to 6.00 | ≤ 5.30 | Cc1ccc(O)c(C)c1-c1c(N)c(C(N)=O)nc2c1ncn2C (single isomer, unassigned) [Compound 3, (M)-6-amino-7-(3-hydroxy-2,6-dimethylphenyl)-3-methyl-3H-imidazo[4,5-b]pyridine-5-carboxamide] |
| > 7.30 | > 7.30 | – | Cc1c(O)cccc1-c1c(N)c(C(N)=O)nc2c1c(C#N)cn2C (single isomer, unassigned) [Compound 5, (M)-5-Amino-3-cyano-4-(3-hydroxy-2-methylphenyl)-1-methyl-1H-pyrrolo[2,3-b]pyridine-6-carboxamide] |
| – | 6.00 to 6.30 | 6.30 to 7.30 | Cc1c(O)cccc1-c1c(N)c(C(N)=O)nc2c1c(C#N)cn2C (single isomer, unassigned) [Compound 6, (P)-5-amino-3-cyano-4-(3-hydroxy-2-methylphenyl)-1-methyl-1H-pyrrolo[2,3-b]pyridine-6-carboxamide] |
| ≤ 5.30 | ≤ 5.30 | – | Cc1ccc(O)c(C)c1-c1cc(C(N)=O)nc2c1c(C#N)cn2CC(F)(F)F (single isomer, unassigned) [Compound 25] |
| ≤ 5.30 | ≤ 5.30 | – | Cc1c(O)cccc1-c1c(N)c(C(N)=O)cn2ccnc12 (single isomer, unassigned) [Compound 45] |
| – | 5.30 to 6.00 | ≤ 5.30 | Cc1c(O)cccc1-c1c(N)c(C(N)=O)nc2c1c(C#N)nn2C (single isomer, unassigned) [Compound 59, (P)-5-amino-3-cyano-4-(3-hydroxy-2-methylphenyl)-1-methyl-1H-pyrazolo[3,4-b]pyridine-6-carboxamide] |
